Test results from ChEMBL document CHEMBL5442168, “ASAP - In vitro liver microsomal stability” (2024).
“And” between values parts separate entries of the source, which are not always exact repeats. Identical values can stand only once.

Key:
[1] = (§1) Mouse liver microsomal stability of compound in microsomal protein, PBS buffer pH 7.4, NADPH, glucose-6-phosphate and glucose-6-phosphate dehydrogenase media. Aliquotes were taken at 5 time points and after stopping the reaction, supernatants were analyzed using HPLC coupled with a tandem mass spectrometer. The elimination constant, half-life, and intrinsic clearance are determined as results using linear regression analysis. The assay has been performed by Enamine biological services, Bienta Ltd.The protocol is publicly available: dx.doi.org/10.17504/protocols.io.5qpvokdb9l4o/v1; assay type: ADME, microsomes, Microsome; conditions: for half-life / microsomal CLint: liver microsomes; for CLint / Remaining (without cofactor) / T1/2 / Remaining: microsomes
[2] = as §1, with “Human” for “Mouse”; assay type: ADME, microsomes, Microsome; conditions: for half-life / microsomal CLint: liver microsomes; for CLint / Remaining / Remaining (without cofactor) / T1/2: microsomes
Wherever Remaining (without cofactor) is given: time not given here.
Wherever Remaining is given: time not given here.

SMILES | half-life [1] | microsomal CLint [1] | CLint [1] | Remaining (without cofactor) [1] | T1/2 [1] | half-life [2] | microsomal CLint [2] | CLint [2] | Remaining [2] | Remaining (without cofactor) [2] | T1/2 [2] | Remaining [1]
CNC(=O)c1c[nH]c2ncnc(N[C@@H](c3ccc4c(c3)S(=O)(=O)CCC4)C(C)C)c12 | 8.7 min | 192 µL/min/mg | 113 µL/min/mg | 92% and 108% | 14.7 min | 12.8 min | 131 µL/min/mg | 108 µL/min/mg | 11% and 17% | 104% and 94% | 15.4 min | –
CC(C)[C@@H](Nc1ncnc2[nH]c(-c3cnn(CC(N)=O)c3)cc12)c1ccc2c(c1)OCCO2 | 41.1 min | 41 µL/min/mg | 42 µL/min/mg | 87% and 98% | 40 min | – | – | 99 µL/min/mg and 238 µL/min/mg | – | 103% and 90% | 16.9 min and 7 min | 54% and 49%
CC(C)[C@@H](Nc1ncnc(N)c1Cl)c1ccc2c(c1)S(=O)(=O)CCC2 | 8.2 min | 204 µL/min/mg | – | 102% | – | 21 min | 79 µL/min/mg | – | 27% | 101% | – | 4%
CC(C)[C@@H](Nc1ncnc2[nH]c(-c3cnn(CC(N)=O)c3)cc12)c1ccc2c(n1)OCCO2 | 145 min | 12 µL/min/mg | 9 µL/min/mg | 104% and 102% | 182.3 min | 120 min | 14 µL/min/mg | 18 µL/min/mg | 77% | 95% | 91.8 min | 83% and 90%
CC(C)[C@@H](Nc1ncnc2[nH]c(-c3cnn(CCC(N)=O)c3)cc12)c1ccc2c(c1)OCCO2 | 27.1 min | 62 µL/min/mg | – | 106% | – | 16.9 min | 99 µL/min/mg | – | 19% | 108% | – | 36%
CC(C)[C@H](Nc1ncnc2[nH]c(-c3cnn(C)c3C#N)cc12)c1ccc2c(n1)NC(=O)CO2 | 12.8 min | 131 µL/min/mg | – | 85% | – | 12.2 min | 137 µL/min/mg | – | 10% | 92% | – | 12%
CNC(=O)c1cc2c(N[C@@H](c3ccc4c(c3)OCCO4)C(C)C)ncnc2[nH]1 | 30.5 min | 55 µL/min/mg | – | 112% | – | 21.1 min | 79 µL/min/mg | – | 23% | 92% | – | 43%
CC(C)[C@@H](Nc1ncnc2[nH]c(-c3cnn(CC(=O)N(C)C)c3)cc12)c1ccc2c(c1)S(=O)(=O)CCC2 | – | – | 68 µL/min/mg and 31 µL/min/mg | 92% and 102% | 24.6 min and 53.8 min | – | – | 106 µL/min/mg and 297 µL/min/mg | – | 92% and 99% | 15.8 min and 5.6 min | 31% and 59%
